The target in one assay is T1, Endothelin-1 receptor (Sus scrofa, UniProt Q29010).
T1 sequence (Q29010 whole entry): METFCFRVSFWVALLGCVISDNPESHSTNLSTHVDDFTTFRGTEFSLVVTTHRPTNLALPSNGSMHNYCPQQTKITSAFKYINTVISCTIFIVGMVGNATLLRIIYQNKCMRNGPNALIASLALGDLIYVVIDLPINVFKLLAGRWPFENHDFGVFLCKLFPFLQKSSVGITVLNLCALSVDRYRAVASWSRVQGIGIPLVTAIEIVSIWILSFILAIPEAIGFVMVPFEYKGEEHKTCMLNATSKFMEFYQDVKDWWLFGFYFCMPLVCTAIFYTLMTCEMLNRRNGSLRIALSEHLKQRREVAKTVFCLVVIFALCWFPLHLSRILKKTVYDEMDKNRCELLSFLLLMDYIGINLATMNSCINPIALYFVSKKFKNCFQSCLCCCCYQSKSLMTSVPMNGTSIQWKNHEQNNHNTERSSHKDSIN
Put plainly: Binding affinity against ETA receptor in porcine aortic smooth muscle membrane was determined.
Details: not given
Compound `CC(C)CC(=O)N[C@@H](CC(C)C)C(=O)N[C@H](Cc1c[nH]c2ccccc12)C(=O)N[C@H](CC(=O)O)C(=O)O` registered an IC50 of 25000 nM.

For the compound `CC(C)C[C@H](NC(=O)[C@H](N)C(C)C)C(=O)N[C@H](Cc1c[nH]c2ccccc12)C(=O)N[C@H](CC(=O)O)C(=O)O`, the 50% inhibitory concentration (IC50) amounted to 32000 nM. The IC50 values of the last two compounds are within 1.5-fold of each other.

Turning to `CC(C)CC(=O)N[C@@H](CC(C)C)C(=O)NC(Cc1c[nH]c2ccccc12)C(=O)NCCC(=O)O` (single isomer, unassigned), the IC50 came to 3900 nM. This IC50 lies about 8.2-fold lower than the previous one.

The next assay deals with T1, Endothelin-1 receptor. Put plainly: Binding affinity against ETA receptor in porcine aortic smooth muscle membrane.
Details: not given
The compound `CC(C)C[C@H](NC(=O)OC(C)(C)C)C(=O)NC(Cc1c[nH]c2ccccc12)C(=O)NCCC(=O)O` (single isomer, unassigned) showed an IC50 of 420 nM.

For `CC(C)C[C@H](NC(=O)Cc1cccs1)C(=O)NC(Cc1c[nH]c2ccccc12)C(=O)NCCC(=O)O` (single isomer, unassigned), the IC50 was 540 nM.

As to `CC(C)C[C@H](NC(=O)CC(C)(C)C)C(=O)NC(Cc1c[nH]c2ccccc12)C(=O)NCCC(=O)O` (single isomer, unassigned), the half-inhibitory concentration (IC50) came to 6700 nM.

`Cc1cccc(NC(=O)N[C@@H](CC(C)C)C(=O)NC(Cc2c[nH]c3ccccc23)C(=O)NCCC(=O)O)c1` (single isomer, unassigned): the IC50 is 2100 nM.

Compound `CC(C)C[C@H](NC(=O)NCc1ccccc1)C(=O)NC(Cc1c[nH]c2ccccc12)C(=O)NCCC(=O)O` (single isomer, unassigned) displayed an IC50 of 3200 nM. Against the preceding compound, the IC50 is about 1.5-fold higher.

`CC(C)C[C@H](NC(=O)CC1CCCC1)C(=O)NC(Cc1c[nH]c2ccccc12)C(=O)NCCC(=O)O` (single isomer, unassigned) returned a half-inhibitory concentration (IC50) of 970 nM.

`CC(C)C[C@H](NC(=O)NC(C)(C)C)C(=O)NC(Cc1c[nH]c2ccccc12)C(=O)NCCC(=O)O` (single isomer, unassigned) registered a half-inhibitory concentration (IC50) of 230 nM. Compared with the last compound, the IC50 is about 4.2-fold lower.

For `CC(C)C[C@H](NC(=O)Nc1cccc(Cl)c1)C(=O)NC(Cc1c[nH]c2ccccc12)C(=O)NCCC(=O)O` (single isomer, unassigned), the IC50 came out at 2100 nM.

The next assay addresses T1, Endothelin-1 receptor. Kind of assay: Antagonistic activity towards ET- l-induced contraction in porcine coronary arteries. Type of assay: functional. The note with it: read-out: pA2 (converted).
Consider `CC(C)C[C@H](NC(=O)N1CCCCCC1)C(=O)NC(Cc1c[nH]c2ccccc12)C(=O)NCCC(=O)O` (single isomer, unassigned), for which the Kb is 60.3 nM.

The next assay deals with T1, Endothelin-1 receptor. Put plainly: Binding affinity determined against ETA receptor in porcine aortic smooth muscle membrane.
Details: not given
For the compound `CC(C)C[C@H](NC(=O)OC(C)(C)C)C(=O)NC(Cc1c[nH]c2ccccc12)C(=O)NCCC(=O)O` (single isomer, unassigned), the IC50 max was 270 nM.

The compound `CC(C)C[C@H](NC(=O)N1CCCCC1)C(=O)NC(Cc1c[nH]c2ccccc12)C(=O)NCCC(=O)O` (single isomer, unassigned) registered an IC50 max of 81 nM.

Turning to `CC(C)C[C@H](NC(=O)N(CCO)C(C)(C)C)C(=O)NC(Cc1c[nH]c2ccccc12)C(=O)NCCC(=O)O` (single isomer, unassigned), the IC50 max amounted to 53 nM.

Regarding `CC(C)C[C@H](NC(=O)N1CCCC1)C(=O)NC(Cc1c[nH]c2ccccc12)C(=O)NCCC(=O)O` (single isomer, unassigned), the IC50 max came to 310 nM.

On to `CC(C)C[C@H](NC(=O)Cc1cccs1)C(=O)NC(Cc1c[nH]c2ccccc12)C(=O)NCCC(=O)O` (single isomer, unassigned), for which the IC50 max was 420 nM.

`CC(C)C[C@H](NC(=O)N1CCCCCCCCC1)C(=O)NC(Cc1c[nH]c2ccccc12)C(=O)NCCC(=O)O` (single isomer, unassigned) registered an IC50 max of 55 nM.

`CC(C)C[C@H](NC(=O)N1C(C)CCCC1C)C(=O)NC(Cc1c[nH]c2ccccc12)C(=O)NCCC(=O)O` (single isomer, unassigned) yielded an IC50 max of 51 nM.

Compound `CC(C)C[C@H](NC(=O)N1CCC(C)CC1)C(=O)NC(Cc1c[nH]c2ccccc12)C(=O)NCCC(=O)O` (single isomer, unassigned) displayed an IC50 max of 580 nM.

In the case of `CC(C)C[C@H](NC(=O)CC1CCCC1)C(=O)NC(Cc1c[nH]c2ccccc12)C(=O)NCCC(=O)O` (single isomer, unassigned), the IC50 max stood at 620 nM.

With `CC(C)C[C@H](NC(=O)NC(C)(C)C)C(=O)NC(Cc1c[nH]c2ccccc12)C(=O)NCCC(=O)O` (single isomer, unassigned), the IC50 max came to 150 nM.

For `CC(C)C[C@H](NC(=O)N1CCc2ccccc2C1)C(=O)NC(Cc1c[nH]c2ccccc12)C(=O)NCCC(=O)O` (single isomer, unassigned), the IC50 max is 530 nM.

With `CC(C)C[C@H](NC(=O)N1CCCCCC1)C(=O)NC(Cc1c[nH]c2ccccc12)C(=O)NCCC(=O)O` (single isomer, unassigned), the IC50 max turned out to be 61 nM.

Turning to `CC(C)C[C@H](NC(=O)NC12CC3CC(CC(C3)C1)C2)C(=O)NC(Cc1c[nH]c2ccccc12)C(=O)NCCC(=O)O` (single isomer, unassigned), the IC50 max was determined as 330 nM.

Turning to `CC(C)C[C@H](NC(=O)N(C(C)C)C(C)C)C(=O)NC(Cc1c[nH]c2ccccc12)C(=O)NCCC(=O)O` (single isomer, unassigned), the IC50 max was 57 nM.

Consider `CC(C)C[C@H](NC(=O)NCC(C)(C)C)C(=O)NC(Cc1c[nH]c2ccccc12)C(=O)NCCC(=O)O` (single isomer, unassigned), for which the IC50 max worked out at 560 nM.

Regarding `CC(C)C[C@H](NC(=O)N1C(C)(C)CCCC1(C)C)C(=O)NC(Cc1c[nH]c2ccccc12)C(=O)NCCC(=O)O` (single isomer, unassigned), the IC50 max is 190 nM.

The term IC50 denotes the concentration needed to halve the response being measured.
